In patent US11819500B2, “T-cell regulation in t-cell mediated diseases by reducing pathogenic function of TH17 in a human subject through treatment with a nitroxide” (priority 2016, dated 2023):

Tests used:
Bag5 = assay: Gene expression in cardiac tissue after Tempol administration (chip-based microarray); assay type: in vivo; conditions: mice aged 31 months, Tempol 5 mg/g of food from 14 to 31 months, control mice 300
Method: (§1) To assess the effects of Tempol on gene expression, Tempol was administered to experimental mice at a dose of 5 mg/g of food from 14 months to 31 months after birth. Mice receiving the same food without the addition of Tempol were used as a negative control. At the age of 31 months, the experimental animals were sacrificed and the hearts were surgically removed. The expression of a broad spectrum of genes in the cardiac tissue was assessed using chip-based microarray technology. Such chips are well known in the art and are widely used to assess gene expression.

Bri3 [1] = assay: as above; assay type: in vivo; conditions: mice aged 31 months, Tempol 5 mg/g of food from 14 to 31 months, control mice 1549
Method: as §1

Cd5l [2] = assay: as above; assay type: in vivo; conditions: mice aged 31 months, Tempol 5 mg/g of food from 14 to 31 months, control mice 150
Method: as §1

Perp [3] = assay: as above; assay type: in vivo; conditions: mice aged 31 months, Tempol 5 mg/g of food from 14 to 31 months, control mice 49
Method: as §1

Unc5b = assay: as above; assay type: in vivo; conditions: mice aged 31 months, Tempol 5 mg/g of food from 14 to 31 months, control mice 103
Method: as §1

[4] = test system: Cd5l, Perp, Unc5b, Bag5 or Bri3; conditions: human, in vivo
Bri3 [5] = assay: Serum level of Bri3 after Tempol treatment of a human subject; assay type: in vivo; conditions: human subject with or at risk of a neurodegenerative disease (e.g., Alzheimer's Disease); 1500 mg per day for 180 days
Method: A human subject is administered a dose of 1500 mg of Tempol (or a nitroxide antioxidant) per day for 180 days. The human subject may be a 70-kilogram human subject over the age of 65. The human subject may be at risk of developing a neurodegenerative disease (e.g., Alzheimer's Disease), may have symptoms of a neurodegenerative disease, and/or may have a neurodegenerative disease. The risk, the symptoms, or the neurodegenerative disease may be caused by decreased expression level of Bri3. The human subject can be identified. The dose may be administered in a single dose, or may be administered as a number of smaller doses over a 24-hour period: for example, three 500-mg doses at eight-hour intervals. Following treatment, the serum level of Bri3 is increased. Increased Bri3 expression can inhibit amyloid precursor protein (APP) processing and amyloid plaque deposition, thus suppressing or reversing development of the neurodegenerative disease.

Cd5l [6] = assay: Serum level of Cd5l after Tempol treatment of a human subject; assay type: in vivo; conditions: 1500 mg per day for 180 days
Method: A human subject is administered a dose of 1500 mg of Tempol (or a nitroxide antioxidant) per day for 180 days. The human subject may be a 70-kilogram human subject. The human subject may be at risk of having pathogenic T-helper cell activity, may have symptoms of pathogenic T-helper cell activity, and/or may have a disease (e.g., an autoimmune disease) associated with pathogenic T-helper cell activity (e.g., pathogenic T-helper 17 cell activity). The autoimmune disease may be mediated by IL-23 as an effector molecule. The human subject can be identified. The dose may be administered in a single dose, or may be administered as a number of smaller doses over a 24-hour period: for example, three 500-mg doses at eight-hour intervals. Following treatment, the serum level of Cd5l is increased. Increased Cd5l expression can alter lipid biosynthesis within the T-helper cell, thus suppressing the pathogenic T-helper cell activity and/or reversing the effect of the pathogenic T-helper cell activity.
A human subject is administered a dose of 1500 mg of Tempol (or a nitroxide antioxidant) per day for 180 days. The human subject may be a 70-kilogram human subject. The human subject may be at risk of developing an autoimmune disease, may have symptoms of an autoimmune disease, and/or may have an autoimmune disease. The autoimmune disease may be mediated by IL-23 as an effector molecule. […]

Perp [7] = assay: Level of Perp after Tempol treatment of a human subject; assay type: in vivo; conditions: 70-kilogram human subject with a disorder such as a desmosome-associated disorder; 1500 mg per day for 180 days
Method: A human subject is administered a dose of 1500 mg of Tempol (or a nitroxide antioxidant) per day for 180 days. The human subject is a 70-kilogram human subject. The human subject may have a disorder (such as a desmosome-associated disorder, which can be associated or characterized by damaged epithelial tissue). The human subject can be identified. The dose may be administered in a single dose, or may be administered as a number of smaller doses over a 24-hour period: for example, three 500-mg doses at eight-hour intervals. Following treatment, the level (e.g., the serum level) of Perp is increased, which can in turn increase desmosome function (e.g., characterized by epithelial integrity)

Structure (SMILES): CC1(C)CC(O)CC(C)(C)N1[O] [Tempol, 4-hydroxy-2,2,6,6-tetramethylpiperidine-1-oxyl]
- Bag5 expression, Tempol-treated mice (Bag5): 370
- Bri3 expression, Tempol-treated mice (Bri3 [1]): 1835
- Cd5l expression, Tempol-treated mice (Cd5l [2]): 406
- Perp expression, Tempol-treated mice (Perp [3]): 82
- Unc5b expression, Tempol-treated mice (Unc5b): 172
- serum level of Cd5l, Perp, Unc5b, Bag5 or Bri3 [4]: increased
- serum level of Bri3 (Bri3 [5]): increased
- serum level of Cd5l (Cd5l [6]; human subject with or at risk of developing an autoimmune disease): increased
- serum level of Cd5l (Cd5l [6]; human subject with or at risk of pathogenic T-helper cell activity): increased
- level (e.g., the serum level) of Perp (Perp [7]): increased
